Assay results from US8361781B2, “Cell aggregation and encapsulation device and method” (Brown University, priority 2006, dated 2013).

Assays:
Type in all cases: cell-based, human
NHF cells = assay: Rod length change kinetics of NHF aggregates in 2.2 mm trough features; details: NHF cells treated with 50 μM and 200 μM Y-27632, 2.2 mm troughs, FIG. 10
Excerpt: Micro-molded, non-adhesive, cell aggregation devices, each having a plurality of cell aggregation recesses in the shape of either troughs or tori were made following the method described in Example 1. Agarose was employed as the hydrogel material and the cell aggregation recess features were as follows. Troughs were 400 μm wide with bottoms rounded with 200 μm radii. There were 21 rows of troughs of increasing length per gel. Each row had 11 troughs, two of which were 400 μm long, then one each of 600 μm through 1800 μm increasing at 200 μm lengths, then two 2200 μm troughs. The 2200 μm troughs were used for all experiments except those for FIG. 9c, which presents data from all trough lengths. […] A z-stack of images from the 4× objective with 10-50 μm between focal planes was collected at each time point using custom-designed Openlab 4.0.2 automations and images were analyzed using Volocity 3.1 (Improvision). […] The core circumference of tori was measured as a continuous circumferential line located at the estimated midpoint of the perpendicular width of the toroid. […] Next, aggregation devices with trough features 2.2 mm in length were made as described in previous examples and seeded with NHF cells, NHF cells in serum-free medium, NHF cells treated with 50 μM of Y-27632 and NHF cells treated with 200 μM of Y-27632 and the lengths of resulting rod shaped aggregates were measured. […]

NHFs [1] = assay: Rod aggregation kinetics in 2.2 mm troughs after removal of drug (time-lapse); details: 100 μM Y-27632 initially, removed at 1.5 hrs and replaced with normal medium, FIG. 11
Procedure: Excess medium was aspirated from the wells and 200 μL of a single cell suspension was pipetted into the aggregation recess of each gel. Medium was added to the wells after a 1.5 hour incubation period wherein cells settled into the aggregation recesses and commenced the self-assembly process. Medium was exchanged every other day. […] A z-stack of images from the 4× objective with 10-50 μm between focal planes was collected at each time point using custom-designed Openlab 4.0.2 automations and images were analyzed using Volocity 3.1 (Improvision). Bright-field and fluorescent images were obtained using an Olympus IX70 microscope equipped with an AxioCam MRc digital camera. For the time-lapse experiments, medium was carefully added 20-30 minutes post seeding, before the devices were transferred to the time lapse microscope. Measurements of morphological changes were performed with ImageJ data analysis software. The length of a rod was the length of a line drawn from end to end of the structure (long-axis length). The core circumference of tori was measured as a continuous circumferential line located at the estimated midpoint of the perpendicular width of the toroid. Gels with trough features 2.2 mm in length were then seeded with NHFs or with NHFs treated initially with 100 μM Y-27632 and imaged every 10 minutes. At 1.5 hrs, the Y-27632 solution was removed and replaced with normal medium. […]

NHFs [2] = assay: Viability staining of treated NHF honeycombs; details: NHF honeycombs maintained in Y-27632 solution, day 5
Procedure: NHF cells alone, H35 cells alone, and 50:50 mixtures of NHF and H35 cells were seeded into the trough aggregation devices and the tori aggregation devices as described in Example 2 and allowed to aggregate. Briefly, NHF cells derived from neonatal foreskins and H35 rat hepatoma cells were expanded in DMEM supplemented with 10% fetal bovine serum (FBS) and 1% penicillin/streptomycin solution. NHF cells were incubated in a 10% CO2 atmosphere and H35 cells were incubated in 5% CO2. The mixture experiments were a 50:50 mix of both cell types and were maintained in a 5% CO2 atmosphere. The cells were stained with fluorescent dyes (NHF cells with CellTracker Red CMTPX and H35 cells with CellTracker Green CMFDA from Invitrogen) to allow their aggregation in the mixed populations to be followed and their aggregated position visualized. Cells used in experiments were between passage 3 and passage 9. Cell viability was determined using the LIVE/DEAD Viability/Cytotoxicity Kit (Invitrogen) in accordance with the manufacturer's instructions.
Lastly, NHFs were seeded onto honeycomb-structured cell aggregation devices made as described in Example 9B and maintained in Y-27632 solution.

NHFs [3] = assay: NHF aggregation in honeycomb-structured cell aggregation devices; details: NHFs maintained in Y-27632 solution, day 5; untreated NHFs contracted up and off of pegs within 1 day
Procedure: In this experiment, cell aggregation devices were formed from agarose gels as described above, but agarose gels were micromolded with honeycomb-shaped recesses instead of troughs or a tori. The honeycomb-shaped recesses are essentially overlapping, tori-shaped recesses: There are 13 pegs (1 central, 6 concentric around the central peg and 6 outer pegs at 0°, 60°, 120°, 180°, 240°, 300° and 360°) within a network of recesses […] and with bottoms rounded with 200 μm radii. Time lapse microscopy was again used to monitor self-assembly of the NHF cells alone, the H35 cells alone and 50:50 mixtures of NHF cells and H35 cells as described above. The results are shown in FIG. 8, at time 0 (top row), 10 hours post-seeding (middle row) and 20 hours post-seeding (bottom row) with the aggregated NHF cells in column A, the aggregated H35 cells in column B and the aggregated 1:1 mixture of NHF and H35 cells in column C. The aggregated NHF cells quickly thinned, became taught and popped off the outer pegs of the honeycomb shaped substrate. Once freed from the substrate, the honeycomb-shaped aggregates of NHF cells contracted in a uniform manner but maintained its shape. The aggregated H35 cells thinned more slowly, maintaining contact with the outer pegs and staying within the molds. […]

NHFs [4] = assay: Toroid stability of NHFs in micro-molded agarose toroidal aggregation devices
Excerpt: Micro-molded, non-adhesive, cell aggregation devices, each having a plurality of cell aggregation recesses in the shape of either troughs or tori were made following the method described in Example 1. Agarose was employed as the hydrogel material and the cell aggregation recess features were as follows. Troughs were 400 μm wide with bottoms rounded with 200 μm radii. There were 21 rows of troughs of increasing length per gel. Each row had 11 troughs, two of which were 400 μm long, then one each of 600 μm through 1800 μm increasing at 200 μm lengths, then two 2200 μm troughs. The 2200 μm troughs were used for all experiments except those for FIG. 9c, which presents data from all trough lengths. […] A z-stack of images from the 4× objective with 10-50 μm between focal planes was collected at each time point using custom-designed Openlab 4.0.2 automations and images were analyzed using Volocity 3.1 (Improvision). […] The core circumference of tori was measured as a continuous circumferential line located at the estimated midpoint of the perpendicular width of the toroid. Micro-molded agarose toroidal aggregation devices (n=208) made as described in Example 9 were seeded with untreated NHFs and NHFs treated with 100 μM of the cell contraction inhibitor Y-27632 (Calbiochem (EMD Biosciences, Inc.), San Diego, Calif.) and the number of stable toroids with patent centers was measured over time. […]

SMILES: C[C@@H](N)[C@H]1CC[C@H](C(=O)Nc2ccncc2)CC1 [Y-27632]
- effect on length change kinetics of rod shaped aggregates (NHF cells): dramatically slowed length change kinetics in rods
- aggregation kinetics after removal of the drug (NHFs [1]): progressing with similar kinetics to those of untreated NHFs
- cell viability (viability staining) (NHFs [2]): majority of the cells were living at day 5
- maintenance of honeycomb structure (NHFs [3]): remained intact in the honeycomb-shaped recesses at day 5
- treated NHFs still having patent centers (stable toroids) (NHFs [4]; 100 μM Y-27632, day 1, n=104, all untreated NHFs had progressed to spheroids): 90%
- treated NHFs still having patent centers (stable toroids) (NHFs [4]; 100 μM Y-27632, day 2, n=104): 5%
